From the supplement of paper PMC10307832

Legend:
Test in all cases: relative viability (nuclei count vs DMSO), 5 days (fraction); higher = more cells survive
Wnt-C59 + Foretinib = compound: CC1=NC=CC(=C1)C2=CC=C(C=C2)CC(=O)NC3=CC=C(C=C3)C4=CN=CC=C4 [Wnt-C59] + COc1cc2c(Oc3ccc(NC(=O)C4(C(=O)Nc5ccc(F)cc5)CC4)cc3F)ccnc2cc1OCCCN1CCOCC1 [Foretinib] (partner 0.25 µM)
Outline: (§1)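 Cells from lung cancer lines were seeded into 1536-well plates and, one day later, dosed by pin tool. Treatments were either a single drug or a fixed dose of an anchor drug with five library-drug doses (not always all listed) in √10 steps. After 5 days, nuclei were stained in a one-step fixation (final 0.05% Triton X-100, 1% formaldehyde, 1 ug/ml Hoechst) and counted on 4× images, and relative viability is the treated-to-vehicle nuclei ratio, as the median of duplicate plates.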

Lapatinib + Pictilisib = compound: CS(=O)(=O)CCNCc1ccc(-c2ccc3ncnc(Nc4ccc(OCc5cccc(F)c5)c(Cl)c4)c3c2)o1 [Lapatinib] + CS(=O)(=O)N1CCN(Cc2cc3nc(-c4cccc5[nH]ncc45)nc(N4CCOCC4)c3s2)CC1 [Pictilisib] (partner 1 µM)
Outline: as §1

Wnt-C59 + Crizotinib = compound: CC1=NC=CC(=C1)C2=CC=C(C=C2)CC(=O)NC3=CC=C(C=C3)C4=CN=CC=C4 [Wnt-C59] + C[C@@H](Oc1cc(-c2cnn(C3CCNCC3)c2)cnc1N)c1c(Cl)ccc(F)c1Cl [Crizotinib] (partner 1 µM)
Outline: as §1

Lapatinib + Decitabine = compound: CS(=O)(=O)CCNCc1ccc(-c2ccc3ncnc(Nc4ccc(OCc5cccc(F)c5)c(Cl)c4)c3c2)o1 [Lapatinib] + Nc1ncn([C@H]2C[C@H](O)[C@@H](CO)O2)c(=O)n1 [Decitabine] (partner 2 µM)
Outline: as §1

Row | Cell Line | relative viability (Wnt-C59 + Foretinib; first compound 0.001 µM) | relative viability (Wnt-C59 + Foretinib; first compound 0.01 µM) | relative viability (Wnt-C59 + Foretinib; first compound 0.03162 µM) | relative viability (Wnt-C59 + Foretinib; first compound 0.1 µM) | relative viability (Lapatinib + Pictilisib; first compound 0.02 µM) | relative viability (Lapatinib + Pictilisib; first compound 0.06325 µM) | relative viability (Lapatinib + Pictilisib; first compound 0.2 µM) | relative viability (Lapatinib + Pictilisib; first compound 0.6325 µM) | relative viability (Lapatinib + Pictilisib; first compound 2 µM) | relative viability (Wnt-C59 + Crizotinib; first compound 0.001 µM) | relative viability (Wnt-C59 + Crizotinib; first compound 0.01 µM) | relative viability (Wnt-C59 + Crizotinib; first compound 0.03162 µM) | relative viability (Wnt-C59 + Crizotinib; first compound 0.1 µM) | relative viability (Lapatinib + Decitabine; first compound 0.02 µM) | relative viability (Lapatinib + Decitabine; first compound 0.06325 µM) | relative viability (Lapatinib + Decitabine; first compound 0.2 µM) | relative viability (Lapatinib + Decitabine; first compound 0.6325 µM) | relative viability (Lapatinib + Decitabine; first compound 2 µM)
1 | NCI-H1651 | 0.985 | 0.734 | 0.858 | 0.758 | 0.561 | 0.472 | 0.526 | 0.613 | 0.596 | 0.856 | 0.855 | 0.854 | 0.864 | 0.466 | 0.608 | 0.605 | 0.633 | 0.484
2 | LXF-289 | 0.991 | 0.98 | 1.01 | 0.979 | 0.762 | 0.717 | 0.744 | 0.784 | 0.737 | 0.822 | 0.768 | 0.817 | 0.78 | 0.358 | 0.377 | 0.354 | 0.385 | 0.408
3 | NCI-H23 | 0.952 | 0.97 | 0.967 | 1.02 |  |  | 0.506 | 0.482 | 0.483 | 0.521 | 0.463 | 0.537 | 0.599 |  |  | 0.315 | 0.353 | 0.323
4 | LU99A | 0.845 | 0.853 | 0.963 | 0.831 | 0.337 | 0.26 | 0.345 | 0.346 | 0.372 | 0.577 | 0.538 | 0.622 | 0.531 | 0.903 | 0.73 | 0.859 | 0.896 | 0.721
5 | NCI-H2085 | 0.987 | 0.958 | 0.88 | 0.918 | 0.389 | 0.454 | 0.553 | 0.54 | 0.45 | 0.929 | 0.803 | 0.953 | 0.823 | 0.579 | 0.528 | 0.512 | 0.521 | 0.477
6 | NCI-H2126 | 1.2 | 1.11 | 1.05 | 1.25 |  | 0.402 | 0.474 | 0.49 | 0.431 | 0.994 | 0.998 | 0.987 | 1.01 | 0.609 | 0.52 | 0.593 | 0.548 | 0.44
7 | LCLC-103H | 0.752 | 0.891 | 0.889 | 0.641 |  | 0.555 | 0.695 | 0.636 | 0.494 | 1.08 | 0.977 | 1 | 1.02 | 0.764 | 0.657 | 0.652 | 0.775 | 0.666
8 | NCI-H2347 | 0.625 | 1.13 | 0.985 | 1.08 | 0.598 | 0.673 | 0.663 | 0.646 | 0.873 | 0.673 | 0.598 | 0.612 | 0.653 | 0.573 | 0.514 | 0.642 | 0.605 | 0.599
9 | NCI-H1437 | 1.31 | 1.28 | 1.29 | 1.26 | 0.5 | 0.314 | 0.386 | 0.482 | 0.422 | 0.996 | 0.867 | 0.988 | 0.89 | 0.603 | 0.527 | 0.56 | 0.53 | 0.569
10 | NCI-H2170 | 0.942 | 0.991 | 1.06 | 1.01 | 0.281 | 0.207 | 0.275 | 0.244 | 0.237 | 1.19 | 1.09 | 1.46 | 1.11 | 0.503 | 0.459 | 0.477 | 0.429 | 0.182
11 | NCI-H1650 | 1.26 | 1.2 | 1.31 | 1.08 | 0.253 | 0.415 | 0.672 | 0.663 | 0.503 | 1.08 | 1.02 | 0.896 | 0.89 | 0.362 | 0.509 | 0.418 | 0.371 | 0.503
12 | LCLC-97TM1 | 1.03 | 0.949 | 1.03 | 0.896 |  |  | 0.223 | 0.227 | 0.203 | 0.292 | 0.344 | 0.545 | 0.283 |  | 0.232 | 0.222 | 0.268 | 0.268
13 | RERF-LC-KJ | 0.889 | 0.832 | 0.915 | 0.926 | 0.472 | 0.907 | 0.595 | 0.438 | 0.325 | 0.868 | 0.764 | 0.878 | 0.852 | 0.679 | 0.62 | 0.749 | 0.645 | 0.499
14 | HCC-827 | 1.08 | 1 | 1.03 | 1.04 | 0.947 | 1.13 | 0.891 | 1.02 | 0.574 | 1.01 | 0.979 | 0.942 | 0.975 | 0.239 | 0.35 | 0.348 | 0.333 | 0.295
15 | SK-LU-1 | 0.791 | 0.796 | 0.87 | 0.792 |  | 0.504 | 0.634 | 0.754 | 0.57 | 0.869 | 0.935 | 0.91 | 1.03 | 0.709 | 0.558 | 0.686 | 0.609 | 0.618
16 | NCI-H1944 | 1.02 | 0.701 | 0.841 | 0.867 |  |  | 0.348 | 0.343 | 0.318 | 1.04 | 0.971 | 1.18 | 1.07 | 0.421 | 0.41 | 0.431 | 0.394 | 0.414
17 | COR-L 105 | 1.13 | 0.722 | 1.03 | 0.911 | 0.33 | 0.329 | 0.35 | 0.419 | 0.307 | 0.879 | 0.808 | 0.853 | 0.76 | 0.62 | 0.538 | 0.586 | 0.613 | 0.376
18 | HARA | 0.823 | 0.765 | 1.01 | 0.841 | 0.418 | 0.261 | 0.527 | 0.33 | 0.288 | 1.04 | 0.642 | 1.15 | 1.06 | 0.575 | 0.525 | 0.522 | 0.37 | 0.398
